According to patent US7557085B2, “Metabolic-based methods for modulating gene expression” (Wisconsin Alumni Research Foundation, priority 2005, dated 2009):

How the values were obtained:
[1] = test system: seizures evoked by kindling; test: kindling model of epilepsy, afterdischarge (AD) threshold; format: in vivo, Sprague Dawley rats; parameters: change of AD threshold / duration of anticonvulsant effects after stopping 2-DG: dose or concentration left out as unconfirmed
Method: FIG. 2 illustrates the effects on after-discharge threshold of 2-DG in a […] model of epilepsy.
2-deoxy-D-glucose (2-DG), a potent inhibitor of glycolysis, was administered to rats experiencing epileptic seizures evoked by kindling, which induces seizures and long-term alterations in pathways of the hippocampal formation resembling human temporal lobe epilepsy. The effects of 2-DG on seizures evoked by kindling were examined in Sprague Dawley rats that received 2-DG and were compared to a saline-injected control group. Both groups initially received twice daily kindling stimulation (1 sec trains of 1 ms bipolar constant current pulses at 60 Hz) delivered to the perforant path input to the hippocampus according to established procedures, until 3 afterdischarges (ADs) accompanied by behavioral seizures were evoked. […]
(§1) Dosage amount and interval of administration of compounds of the present invention can be adjusted individually to reduce seizure frequency, duration or intensity. For example, doses of 250 mg/kg 2-DG or less to higher as tolerated can be used to reduce seizure frequency and minimize toxicity. Doses of as much as 2000 mg/kg 2-DG are well tolerated in rats. […] A practitioner skilled in the art can adjust dosage in the range up to 500-600 mg/kg 2-DG and the timing of administration to produce prolonged anticonvulsant and antiepileptic effects. Efficacious dosage amounts can be adjusted to about 14 mg/kg 2-DG in children and 40 mg/kg 2-DG in adults, using therapeutic efficacy measurements (e.g., reduction in frequency or severity of seizures) as a criterion for establishing effective dosage levels.

[2] = format: in vivo; details: rats
Method: as §1

actin = test: QRT-PCR of hippocampal tissue from kindled rats, actin; format: in vivo, rat; details: hippocampus, 2-DG treatment versus control
Text: Values plotted are BDNF or TrkB expression over Actin using rat hippocampal cDNA from an untreated rat for a standard curve. Specifically, mRNA was extracted from hippocampus tissue from rats treated with 2-DG or untreated control rats subjected to kindling stimulation to mimic epilepsy. […] The levels of actin mRNA were not affected by 2-DG treatment. Importantly, the differences in expression of BDNF or TrkB in the absence or presence of 2DG were present after 5 ADs in association with a large difference in AD threshold between 2DG-treated and control rats (FIG. 3 lanes 5 versus 6 and 7 versus 8).

NRSF mediated repression = test: gal4-NRSF luciferase reporter (G5-TATA-Luc) in JTC-19 cells; format: cell-based, rat; details: JTC-19 cells
[3] = test system: NRSF target genes Sodium Type II (NaV1.2), BDNF, CHRM4; test: QRT-PCR of chromosomal NRSF target genes in JTC-19 cells; format: cell-based, rat; details: 1 mM 2-DG for 24 hrs
Text: (§2) FIG. 5 are graphs showing the results of quantitative reverse-transcriptase-PCR experiments, wherein NaV1.2 is sodium type II (NaV1.2); BDNF is Brain Derived Neurotrophic Factor (BDNF) and CHRM4 is muscarinic acetylcholine receptor type 4 (CHRM4), all genes repressed by NRSE/NRSF, and actin (not an NRSF target).
(§3) Firefly luciferase measurements were normalized to co-transfected pRL-TK and expressed as fold repression (gal4 DBD/gal4-NRSF). Values are the average of at least three experiments performed in triplicate. Error bars indicate standard errors. […] In these experiments, cells were grown in the presence or absence of 1 mM 2-DG for 24 hrs, harvested and RNA subjected to QRT-PCR with primers to the NRSF target genes Sodium Type II (NaV1.2), Brain Derived Neurotrophic Factor (BDNF) and Muscarinic Acetylcholine Receptor Type 4 (CHRM4) or actin (not an NRSF target). Rat hippocampal cDNA was used to generate a standard curve and values plotted are microliter equivalents of hippocampal cDNA.

[4] = test system: actin (not an NRSF target); test: QRT-PCR of actin in JTC-19 cells; format: cell-based, rat; details: 1 mM 2-DG for 24 hrs
Text: as §2, §3

CHRM4 [5] = test: QRT-PCR of CHRM4 in CtBP1/CtBP2 mutant Mouse Embryonic Fibroblasts; format: cell-based; details: 1 mM 2-DG
Method: FIG. 7C is a graph of normalized CHRM4 expression in MEFs bearing an inactivating mutation in heterozygous (−/+) or homozygous (−/−) state for both CtBP1 and CtBP2, assayed in the presence of absence of 2-DG.
To test whether CtBP was required for NRSF repression of chromosomal genes, expression levels of NRSF target genes were assayed in Mouse Embryonic Fibroblasts (MEFs) heterozygous or homozygous for deletions of both CtBP1 and CtBP2 (as described in Hildebrand & Soriano, 2002, Mol Cell Biol 22: 5296-307). In these experiments, wild type MEFs or MEFs heterozygous (CtBP1^−/+2^−/+) or homozygous (CtBP1^−/−2^−/−) for both CtBP1 and CtBP2 mutants were analyzed for CHRM4, Myelin Basic Protein (MBP) and hypoxanthine phosphoribosyl transferase (HPRT, as a non-NRSF regulated control) expression by QRT-PCR as described in Example 2. […] The expression levels of both genes were further elevated in CtBP1^−/−/2^−/− cells, consistent with a dose-responsive co-repressor function for CtBP.

CHRM4 [6] = test: ChIP in JTC-19 cells grown with 2-DG or glucose, CHRM4; format: cell-based, rat
Text: To determine whether 2-DG mediated suppression of BDNF levels was associated with a decreased level of histone H3 Lysine^9 acetylation, hippocampii from 2-DG treated or control rats were crosslinked with 1% formaldehyde and subjected to chromatin immunoprecipitation assays (ChIPs), performed as in Roopra et al.(2004, Mol Cell 14: 727-38) with an antibody specific to acetylated H3-K9. The graphs shown in FIGS. 10A through 10C show the results of experiments in which the amount (in ng) of DNA associated with nucleosomes comprising modified or unmodified H3 histone proteins was detected for an endogenous, NRSE/NRSF-regulated gene (CHRM4) in JTC-19 cells grown in the presence of 2-DG or glucose. […] However, the amount of CtBP recruited to CHRM4, the NRSF target gene, increased 5-fold in the presence of 2-DG.

With `O=CC[C@@H](O)[C@H](O)[C@H](O)CO` [2-DG, 2-deoxy-D-glucose] the “AD threshold reached with repeated stimulations” value ([1]; rats, 2-DG 200 mg/kg subcutaneously 30 minutes prior to each kindling stimulation, maximum intensity of the stimulation protocol) was 1500 μramps, the “change of AD threshold” value ([1]; subcutaneous prior to each kindling stimulation that evoked AD, saline control showed a decrease) was “gradual increase” and the “duration of anticonvulsant effects after stopping 2-DG” value ([1]; twice daily for 3 months, twice daily stimulation continued) was “approximately 8 weeks”. For the same molecule, the well tolerated dose [2] was no more than 2000 mg/kg, the “levels of actin mRNA” value (actin) was “not affected” and the “repression by NRSF of luciferase reporter” value (“repression by NRSF” below) (NRSF mediated repression; 2-DG added to pyruvate and glucose) was “augmented this effect”. For the same molecule, the “repression of luciferase reporter gene expression by NRSF (fold repression gal4 DBD/gal4-NRSF)” value (NRSF mediated repression; 16 hrs) was “increased repression”, the “repression by NRSF” value (NRSF mediated repression; in the absence of glucose) was “unable to further augment repression” and the “repression by NRSF” value (NRSF mediated repression; in the presence of glucose) was “increased repression”. The “expression of chromosomal NRSF target genes” value [3] was “repressed”, the actin levels [4] was “unaffected” and the CHRM4 expression (CHRM4 [5]; CtBP1-/+/2-/+ cells) was “repressed”. The CHRM4 expression (CHRM4 [5]; CtBP1-/-/2-/- cells) was “not altered”, the “H3-Lys9 acetylation levels at the CHRM4 promoter” value (CHRM4 [6]; in the presence of 2-DG) was “reduced” and the “amount of mono- and di-methyl K9” value (CHRM4 [6]; in the presence of 2-DG) was “increased”. For the same molecule, the “amount of unmodified (de-acetylated) H3K9” value (CHRM4 [6]; in the presence of 2-DG) was “increased”, the “increase of amount of CtBP recruited to CHRM4” value (CHRM4 [6]; in the presence of 2-DG) was 5 fold and the “amount of NRSF, G9a and SIN3 at NRSF target genes” value (CHRM4 [6]; presence or absence of 2-DG) was “does not change”.
